We go through 30 molecules from US8895585B2, “Nicotinamide derivative or salt thereof” (FUJIFILM Corporation, priority 2010, dated 2014).

The test system of one assay is THP-1 cells. As to the kind of experiment: TNFα generation assay. The settings on record: Homo sapiens, THP-1, THP-1 cells; Table 22; read-out: IC50 in TNFα generation assay. The assay is classed as cell-based, human. The method in brief:
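Secreted TNFα in supernatant quantified by ELISA or AlphaLISA after 7 h culture on human IgG-coated wells (10 μg/ml coating). Cells were IFN-γ-differentiated THP-1 (10 ng/ml, 2 days), exposed to compound for 30 min at room temperature before plating.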

The target of assay [1] is T1, glutathione S-transferase (GST)-fused full-length human Syk protein (Homo sapiens, UniProt P43405).
T1 construct: (GST)-fused full-length human Syk protein; GST (glutathione S-transferase); purchased Carna Biosciences
Nature of the assay: Syk enzyme assay. The settings on record: Syk enzyme assay, Test Example 1; read-out: IC50 of Syk-inhibitory activity. The assay is classed as biochemical. The method in brief:
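IC50 values come from a time-resolved FRET readout (615 and 665 nm) of substrate phosphorylation, measured after an EDTA stop and 1 h antibody binding. The kinase reaction ran 40 min at room temperature with 27 μM ATP and 0.4 μM biotin-peptide, following a 15 min compound preincubation with baculovirus-made GST-full-length human Syk.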

The structures appear in SMILES notation.

Take `C[C@H](N)[C@H](Nc1nc(Nc2cncc(F)c2)c(C(N)=O)cc1F)C1CC1` [Example 006-372, 6-(((1R,2S)-2-amino-1-cyclopropylpropyl)amino)-5-fluoro-2-((5-fluoropyridin-3-yl)amino)nicotinamide]: the values for the IC50 (in the assay with THP-1 cells; in assay [1]) were 65 to 130 nM and 10 to 50 nM, respectively.

As for `COc1cccc(-c2cncc(Nc3nc(N[C@@H]4CCCC[C@@H]4N)c(F)cc3C(N)=O)c2)c1` (relative stereo) [Example 004-113, 6-(cis-2-aminocyclohexylamino)-5-fluoro-2-((5-(3-methoxyphenyl)pyridin-3-yl)amino)-nicotinamide], the IC50 in the assay on THP-1 cells is 130 to 200 nM; in assay [1], less than 10 nM.

On to `NC(=O)c1cc(F)c(NC2CCCCC2N)nc1Nc1cncc(-c2ccc3c(c2)OCO3)c1` (stereo not drawn) [Example 002-175], for which the IC50 in the assay on THP-1 cells was less than 65 nM; in assay [1] it was less than 10 nM.

Consider `CC(C)Cn1ccc2c(Nc3nc(N[C@@H]4CCCC[C@@H]4N)c(F)cc3C(N)=O)ccnc21` [Example 004-036], for which the IC50 is 65 to 130 nM with THP-1 cells and less than 10 nM in assay [1].

Consider `COc1cc(Nc2nc(N[C@H](C3CC3)[C@H](C)N)c(F)cc2C(N)=O)cc(OC)n1` [Example 006-429, 6-(((1R,2S)-2-amino-1-cyclopropylpropyl)amino)-2-((2,6-dimethoxypyridin-4-yl)amino)-5-fluoronicotinamide], for which the IC50 was 65 to 130 nM in the assay with THP-1 cells and less than 10 nM in assay [1].

As for `CC[C@@H](Nc1nc(Nc2ccc3ncccc3c2)c(C(N)=O)cc1F)[C@H](C)N` [Example 006-178, 6-(((2S,3R)-2-aminopentan-3-yl)amino)-5-fluoro-2-((quinolin-6-yl)amino)nicotinamide], the IC50 in the assay with THP-1 cells was less than 65 nM; in assay [1], less than 10 nM.

With `C=C(C)C[C@@H](Nc1nc(Nc2ccc3c(cnn3CC)c2)c(C(N)=O)cc1F)[C@H](C)N` [Example 006-397, 6-(((2S,3R)-2-amino-5-methylhex-5-en-3-yl)amino)-2-((1-ethyl-1H-indazol-5-yl)amino)-5-fluoronicotinamide], the IC50 was less than 65 nM with THP-1 cells and less than 10 nM in assay [1].

Consider `CCS(=O)(=O)Nc1cccc2cc(Nc3nc(N[C@@H]4CCCC[C@@H]4N)c(F)cc3C(N)=O)cnc12` (relative stereo) [Example 41-12, 6-(cis-2-aminocyclohexylamino)-2-((8-(ethylsulphonamide)quinolin-3-yl)amino)-5-fluoronicotinamide], for which the IC50 was 130 to 200 nM with THP-1 cells and less than 10 nM in assay [1].

For `NC(=O)c1cc(F)c(N[C@@H]2CCCC[C@@H]2N)nc1Nc1ccnc2c1ccn2CCN1CCOCC1` [Example 004-025], the IC50 is less than 65 nM in the assay on THP-1 cells and less than 10 nM in assay [1].

Consider `NC(=O)c1cc(F)c(N[C@@H]2CCCC[C@@H]2N)nc1Nc1cncc(-c2cccc([N+](=O)[O-])c2)c1` (relative stereo) [Example 004-215, 6-(cis-2-aminocyclohexylamino)-5-fluoro-2-((5-(3-nitrophenyl)pyridin-3-yl)amino)nicotinamide], for which the IC50 in the assay on THP-1 cells was 65 to 130 nM; in assay [1] it was less than 10 nM.

As to `COc1cc(Nc2nc(N[C@@H]3CCCC[C@@H]3N)c(F)cc2C(N)=O)cc(OC)n1` [Example 006-114, 6-(((1R,2S)-2-aminocyclohexyl)amino)-2-((2,6-dimethoxypyridin-4-yl)amino)-5-fluoronicotinamide], the figures for the IC50 (with THP-1 cells; in assay [1]) were 65 to 130 nM and less than 10 nM, respectively.

As for `CC[C@@H](Nc1nc(Nc2ccnc(OC)c2)c(C(N)=O)cc1F)[C@H](C)N` [Example 006-266, 6-(((2S,3R)-2-aminopentan-3-yl)amino)-5-fluoro-2-((2-methoxypyridin-4-yl)amino)nicotinamide], the results for the IC50 (in the assay on THP-1 cells; in assay [1]) were less than 65 nM and less than 10 nM, respectively.

As for `CCn1ncc2c(Nc3nc(N[C@H](CC(C)C)[C@H](C)N)c(F)cc3C(N)=O)cccc21` [Example 006-519, 6-(((2S,3R)-2-amino-5-methylhexan-3-yl)amino)-2-((1-ethyl-1H-indazol-4-yl)amino)-5-fluoronicotinamide], the IC50 was 65 to 130 nM in the assay with THP-1 cells and less than 10 nM in assay [1].

On to `NC(=O)c1cc(F)c(NC2CCCCC2N)nc1Nc1cncc2ccccc12` (stereo not drawn) [Example 010-001], for which the IC50 in the assay on THP-1 cells was less than 65 nM; in assay [1], less than 10 nM.

Consider `NC(=O)c1cc(F)c(NC[C@@H](N)c2ccsc2)nc1Nc1ccc2ncccc2c1` [Example 014-019, (S)-6-((2-amino-2-(thiophene-3-yl)ethyl)-amino)-5-fluoro-2-((quinolin-6-yl)amino)-nicotinamide], for which the values for the IC50 (in the assay on THP-1 cells; in assay [1]) were 65 to 130 nM and less than 10 nM, respectively.

As to `CCn1nc(F)c2cc(Nc3nc(N[C@H](CC4CC4)[C@H](C)N)c(F)cc3C(N)=O)ccc21` [Example 006-509, 6-(((2R,3S)-3-amino-1-cyclopropylbutan-2-yl)amino)-2-((1-ethyl-3-fluoro-1H-indazol-5-yl)amino)-5-fluoronicotinamide], the IC50 is 65 to 130 nM in the assay with THP-1 cells and less than 10 nM in assay [1].

For `COc1cc(Nc2nc(N[C@H](C)CN)c(F)cc2C(N)=O)cc(OC)c1` [Example 006-100, (R)-6-((1-aminopopan-2-yl)amino)-2-((3,5-dimethoxyphenyl)amino)-5-fluoronicotinamide], the IC50 in the assay with THP-1 cells was 65 to 130 nM; in assay [1], less than 10 nM.

In the case of `COc1nccc2cc(Nc3nc(N[C@@H]4CCCC[C@@H]4N)c(F)cc3C(N)=O)ccc12` (relative stereo) [Example 004-164, 6-(cis-2-aminocyclohexylamino)-5-fluoro-2-((1-methoxyisoquinolin-6-yl)amino)-nicotinamide], the results for the IC50 (with THP-1 cells; in assay [1]) were 130 to 200 nM and less than 10 nM, respectively.

For `Cn1nc(C2CC2)c2cc(Nc3nc(N[C@@H]4CCCC[C@@H]4N)c(F)cc3C(N)=O)ccc21` [Example 006-544, 6-(((1R,2S)-2-aminocyclohexyl)amino)-2-((3-cyclopropyl-1-methyl-1H-indazol-5-yl)amino)-5-fluoronicotinamide], the IC50 is 65 to 130 nM with THP-1 cells and less than 10 nM in assay [1].

As to `CCCc1nn(CC)c2ccc(Nc3nc(N[C@@H]4CCCC[C@@H]4N)c(F)cc3C(N)=O)cc12` [Example 006-457, 6-(((1R,2S)-2-aminocyclohexyl)amino)-2-((1-ethyl-3-propyl-1H-indazol-5-yl)amino)-5-fluoronicotinamide], the results for the IC50 (in the assay on THP-1 cells; in assay [1]) were 130 to 200 nM and less than 10 nM, respectively.

For `CCc1nn(CC)c2ccc(Nc3nc(N[C@H](CC)[C@H](C)N)c(F)cc3C(N)=O)cc12` [Example 006-541, 6-(((2S,3R)-2-aminopentan-3-yl)amino)-2-((1,3-diethyl-1H-indazol-5-yl)amino)-5-fluoronicotinamide], the results for the IC50 (with THP-1 cells; in assay [1]) were 130 to 200 nM and less than 10 nM, respectively.

Regarding `CC[C@@H](Nc1nc(Nc2cccc3c2cnn3C)c(C(N)=O)cc1F)[C@H](C)N` [Example 006-268, 6-(((2S,3R)-2-aminopentan-3-yl)amino)-5-fluoro-2-((1-methyl-1H-indazol-4-yl)amino)nicotinamide], the IC50 was less than 65 nM in the assay on THP-1 cells and less than 10 nM in assay [1].

As to `CNc1ccc(Nc2nc(NC3CCCCC3N)c(F)cc2C(N)=O)cn1` (stereo not drawn) [Example 002-073], the IC50 lay in the range of 130 to 200 nM in the assay on THP-1 cells and 10 to 50 nM in assay [1].

As to `Cn1ccc2c(Nc3nc(N[C@H](Cc4ccccc4)C(N)=O)c(F)cc3C(N)=O)ccnc21` [Example 004-044], the IC50 with THP-1 cells is 130 to 200 nM; in assay [1], less than 10 nM.

As to `COc1cc(Nc2nc(N[C@H](CC(C)C)[C@H](C)N)c(F)cc2C(N)=O)ccn1` [Example 006-410, 6-(((2S,3R)-2-amino-5-methylhexan-3-yl)amino)-5-fluoro-2-((2-methoxypyridin-4-yl)amino)nicotinamide], the IC50 with THP-1 cells was 65 to 130 nM; in assay [1], less than 10 nM.

With `CC(C)C[C@H](CN)Nc1nc(Nc2ccnc(-c3ccccc3F)c2)c(C(N)=O)cc1F` [Example 006-324, (R)-6-((1-amino-4-methylpentan-2-yl)amino)-5-fluoro-2-((2-(2-fluorophenyl)pyridin-4-yl)amino)nicotinamide], the values for the IC50 (with THP-1 cells; in assay [1]) were 130 to 200 nM and less than 10 nM, respectively.

For `COc1ccc(F)c(-c2cc(Nc3nc(N[C@@H](CN)CC(C)C)c(F)cc3C(N)=O)ccn2)c1` [Example 006-321, (R)-6-((1-amino-4-methylpentan-2-yl)amino)-5-fluoro-2-((2-(2-fluoro-5-methoxyphenyl)pyridin-4-yl)amino)nicotinamide], the figures for the IC50 (with THP-1 cells; in assay [1]) were 130 to 200 nM and less than 10 nM, respectively.

For the molecule `CC[C@@H](Nc1nc(Nc2cncc(C3CC3)c2)c(C(N)=O)cc1F)[C@H](C)N` [Example 006-255, 6-(((2S,3R)-2-aminopentan-3-yl)amino)-2-((5-cyclopropylpyridin-3-yl)amino)-5-fluoronicotinamide], the IC50 is 65 to 130 nM with THP-1 cells and less than 10 nM in assay [1].

Consider `CCc1nn(C)c2ccc(Nc3nc(N[C@H](CC4CC4)[C@H](C)N)c(F)cc3C(N)=O)cc12` [Example 006-505, 6-(((2R,3S)-3-amino-1-cyclopropylbutan-2-yl)amino)-2-((3-ethyl-1-methyl-1H-indazol-5-yl)amino)-5-fluoronicotinamide], for which the values for the IC50 (in the assay with THP-1 cells; in assay [1]) were 130 to 200 nM and less than 10 nM, respectively.

`CC[C@@H](Nc1nc(Nc2ccnc(-c3cccc(OC)c3F)c2)c(C(N)=O)cc1F)[C@H](C)N` [Example 006-281, 6-(((2S,3R)-2-aminopentan-3-yl)amino)-5-fluoro-2-((2-(2-fluoro-3-methoxyphenyl)pyridin-4-yl)amino)nicotinamide]: the IC50 in the assay on THP-1 cells was less than 65 nM; in assay [1] it was less than 10 nM.
